Measurements as given in US9340501B2, “Marinopyrrole derivatives as anticancer agents” (H. LEE MOFFITT CANCER CENTER AND RESEARCH INSTITUTE, INC., priority 2012, dated 2016).
“And” between values parts separate entries of the source, which are not always exact repeats. Equal values may be shown once. Read-outs that look alike come from different tables or passages of the source. Each block holds one molecule with its values, some of them ahead of it.

Experiments:
MDA-MB-468 cells = test: In vitro anticancer assay against MDA-MB-468 cells; format: cell-based; conditions: for inhibition at 0.5 µM: MDA-MB-468, 0.5 μM; for inhibition at 0.5 µM / inhibition at 50 µM / inhibition at 5 µM: read-out: % Inhibition at 0.5, 5, 50 μM; for inhibition at 50 µM: MDA-MB-468, 50 μM; for inhibition at 5 µM: MDA-MB-468, 5 μM
Protocol: The anticancer activities of the novel asymmetrical marinopyrroles described herein were evaluated against MDA-MB-468 cells (Table 1). IC50 values are reported in μM.

Bcl-2 = Bcl-2 (Homo sapiens, UniProt P10415); conditions: Tse et al. 2008; cited from earlier work
Chain of Bcl-2 (P10415 whole entry, species assumed): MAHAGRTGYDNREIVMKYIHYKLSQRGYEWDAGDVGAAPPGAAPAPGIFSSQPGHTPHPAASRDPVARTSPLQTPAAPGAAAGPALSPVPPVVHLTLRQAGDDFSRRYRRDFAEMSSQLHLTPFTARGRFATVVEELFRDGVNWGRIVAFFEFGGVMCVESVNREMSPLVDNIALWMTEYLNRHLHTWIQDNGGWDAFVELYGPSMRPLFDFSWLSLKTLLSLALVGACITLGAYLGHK

Mcl-1 = Mcl-1 (Homo sapiens, UniProt Q07820); conditions: Tse et al. 2008; cited from earlier work
Chain of Mcl-1 (Q07820 whole entry, species assumed): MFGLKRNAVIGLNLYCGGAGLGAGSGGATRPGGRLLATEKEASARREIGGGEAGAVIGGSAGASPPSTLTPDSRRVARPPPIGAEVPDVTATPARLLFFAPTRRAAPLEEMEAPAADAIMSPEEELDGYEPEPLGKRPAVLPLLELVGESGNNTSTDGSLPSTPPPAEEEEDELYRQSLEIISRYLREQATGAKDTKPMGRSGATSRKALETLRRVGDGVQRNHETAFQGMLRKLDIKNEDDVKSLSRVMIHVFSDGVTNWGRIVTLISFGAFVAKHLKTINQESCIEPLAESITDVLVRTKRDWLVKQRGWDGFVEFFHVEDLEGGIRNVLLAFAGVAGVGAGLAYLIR

Bcl-XL = Bcl-XL (Homo sapiens, UniProt Q07817); conditions: Tse et al. 2008; cited from earlier work
Chain of Bcl-XL (Q07817 whole entry, species assumed): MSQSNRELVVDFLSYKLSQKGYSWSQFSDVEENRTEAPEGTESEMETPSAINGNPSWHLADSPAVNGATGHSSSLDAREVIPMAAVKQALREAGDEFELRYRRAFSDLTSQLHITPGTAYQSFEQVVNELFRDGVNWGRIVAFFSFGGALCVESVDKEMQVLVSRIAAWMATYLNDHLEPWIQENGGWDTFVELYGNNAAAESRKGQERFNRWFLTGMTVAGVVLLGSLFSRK

[1] = Homo sapiens, MDA-MB-468, estimated from % inhibition at 0.5, 5, 50 μM, read-out: Est. IC50
[2] = Homo sapiens, MDA-MB-468, mean of the determinations, read-out: Mean IC50
[3] = Homo sapiens, MDA-MB-468, single determinations, read-out: IC50
[4] = single determinations, read-out: IC50
[5] = estimated from % inhibition at 0.5, 5, 50 μM, read-out: Est. IC50
[6] = mean of the determinations, read-out: Mean IC50

IC50 (MDA-MB-468 cells; [1]): 25 µM
SMILES: COc1ccccc1C(=O)c1[nH]c(Cl)c(Cl)c1-n1c(C(=O)c2cccc(Cl)c2O)cc(Cl)c1Cl [Compound 21]
inhibition at 0.5 µM (MDA-MB-468 cells; Homo sapiens): -0.4%
inhibition at 50 µM (MDA-MB-468 cells; Homo sapiens): 99.1%

IC50 (MDA-MB-468 cells; [2]): 11 µM
IC50 (MDA-MB-468 cells; [3]): 11.7 µM
IC50 (MDA-MB-468 cells; [4]): 10.2 µM
SMILES: COc1ccccc1C(=O)c1[nH]c(Cl)c(Cl)c1-n1c(C(=O)c2cc(F)ccc2OC)cc(Cl)c1Cl [Compound 7]

IC50 (MDA-MB-468 cells; [3]): 15.7 µM
SMILES: CCOC(=O)c1[nH]c(Cl)c(Cl)c1-n1c(C(=O)c2ccccc2O)cc(Cl)c1Cl [Compound 37]

IC50 (MDA-MB-468 cells; [2]): 13.2 µM
IC50 (MDA-MB-468 cells; [3]): 14 µM
IC50 (MDA-MB-468 cells; [4]): 12.5 µM
SMILES: COc1ccccc1C(=O)c1[nH]c(Cl)c(Cl)c1-n1c(C(=O)c2ccc(Cl)cc2OC)cc(Cl)c1Cl [Compound 5, (4-Chloro-2-methoxyphenyl)(4,4′,5,5′-tetrachloro-2′-(2-methoxybenzoyl)-1′H-[1,3′-bipyrrole]-2-yl)methanone]

IC50 (MDA-MB-468 cells; [2]): 2.09 µM
IC50 (MDA-MB-468 cells; [3]): 2.73 µM
IC50 (MDA-MB-468 cells; [4]): 1.44 µM
SMILES: CCOC(=O)c1cc(Cl)c(Cl)n1-c1c(C(=O)c2ccccc2O)[nH]c(Cl)c1Cl [Compound 38]

IC50 (MDA-MB-468 cells; [1]): 28 µM
SMILES: COc1ccccc1C(=O)c1[nH]c(Cl)c(Cl)c1-n1c(C(=O)c2cc(F)ccc2O)cc(Cl)c1Cl [Compound 25]
inhibition at 0.5 µM (MDA-MB-468 cells; Homo sapiens): 2.4%
inhibition at 50 µM (MDA-MB-468 cells; Homo sapiens): 95.7%

SMILES: O=C(c1ccccc1O)c1[nH]c(Cl)c(Cl)c1-n1c(C(=O)c2cccc(Cl)c2O)cc(Cl)c1Cl [Compound 3, (3-Chloro-2-hydroxyphenyl)(4,4′,5,5′-tetrachloro-2′-(2-hydroxybenzoyl)-1′H-1,3′-bipyrrol-2-yl)methanone]
inhibition at 0.5 µM (MDA-MB-468 cells; Homo sapiens): 7%
inhibition at 5 µM (MDA-MB-468 cells; Homo sapiens): 83.4%
inhibition at 50 µM (MDA-MB-468 cells; Homo sapiens): 100%
IC50 (MDA-MB-468 cells; [1]): 1 µM
IC50 (MDA-MB-468 cells; [2]): 2.17 µM
IC50 (MDA-MB-468 cells; [3]): 1.95 µM
IC50 (MDA-MB-468 cells; [4]): 2.39 µM

SMILES: O=C(c1ccccc1O)c1[nH]c(Cl)c(Cl)c1-n1c(C(=O)c2c(O)cccc2F)cc(Cl)c1Cl [Compound 32]
% Inhibition at 0.5, 5, 50 μM (MDA-MB-468 cells; 0.5 μM): 0%
% Inhibition at 0.5, 5, 50 μM (MDA-MB-468 cells; 50 μM): 87.7%
IC50 (MDA-MB-468 cells; [5]): 12 µM

SMILES: COc1cc(OC)c(C(=O)c2cc(Cl)c(Cl)n2-c2c(C(=O)c3ccccc3OC)[nH]c(Cl)c2Cl)cc1Cl [Compound 9]
IC50 (MDA-MB-468 cells; [3]): 20.4 µM

SMILES: O=C(c1ccccc1O)c1[nH]c(Cl)c(Cl)c1-n1c(C(=O)c2cc(Cl)c3ccccc3c2O)cc(Cl)c1Cl [Compound 12]
IC50 (MDA-MB-468 cells; [2]): 1.89 µM
IC50 (MDA-MB-468 cells; [3]): 1.9 µM

SMILES: O=C(c1ccccc1O)c1[nH]c(Cl)c(Cl)c1-n1c(C(=O)c2ccccc2O)cc(Cl)c1Cl (racemic) [Racemic Marinopyrrole A, reference compound]
IC50 (MDA-MB-468 cells; [6]): 2.03 ± 0.18 µM
IC50 (MDA-MB-468 cells; [4]): 2.19 µM and 1.84 µM and 2.07 µM

IC50 (MDA-MB-468 cells; [2]): 1.7 µM
IC50 (MDA-MB-468 cells; [3]): 1.94 µM
IC50 (MDA-MB-468 cells; [4]): 1.46 µM
SMILES: O=C(c1ccccc1O)c1[nH]c(Cl)c(Cl)c1-n1c(C(=O)c2cc3ccccc3c(Cl)c2O)cc(Cl)c1Cl [Compound 10]

SMILES: O=C(c1ccccc1O)c1[nH]c(Cl)c(Cl)c1-n1c(C(=O)c2ccc(Cl)cc2O)cc(Cl)c1Cl [Compound 2, (4-Chloro-2-hydroxyphenyl)(4,4′,5,5′-tetrachloro-2′-(2-hydroxybenzoyl)-1′H-1,3′-bipyrrol-2-yl)methanone]
IC50 (MDA-MB-468 cells; [2]): 1.45 µM
IC50 (MDA-MB-468 cells; [3]): 1.72 µM
IC50 (MDA-MB-468 cells; [4]): 1.17 µM

SMILES: O=C(c1ccccc1O)c1[nH]c(Cl)c(Cl)c1-n1c(C(=O)c2ccc(F)cc2O)cc(Cl)c1Cl [Compound 30]
inhibition at 0.5 µM (MDA-MB-468 cells; Homo sapiens): 10.8%
inhibition at 5 µM (MDA-MB-468 cells; Homo sapiens): 78.6%
inhibition at 50 µM (MDA-MB-468 cells; Homo sapiens): 94.7%
IC50 (MDA-MB-468 cells; [1]): 1 µM
IC50 (MDA-MB-468 cells; [2]): 1.04 µM
IC50 (MDA-MB-468 cells; [3]): 0.94 µM
IC50 (MDA-MB-468 cells; [4]): 1.14 µM

IC50 (MDA-MB-468 cells; [3]): 33.5 µM
SMILES: COc1ccc(F)cc1C(=O)c1cc(Cl)c(Cl)n1-c1c(C(=O)O)[nH]c(Cl)c1Cl [Compound 34]

SMILES: O=C(c1ccccc1O)c1[nH]c(Cl)c(Cl)c1-n1c(C(=O)c2c([O-])cccc2F)cc(Cl)c1Cl.[Na+] [Compound 27]
% Inhibition at 0.5, 5, 50 μM (MDA-MB-468 cells; 0.5 μM): 3.9%
inhibition at 50 µM (MDA-MB-468 cells; Homo sapiens): 96.3%
IC50 (MDA-MB-468 cells; [5]): 25 µM

IC50 (MDA-MB-468 cells; [3]): 10.5 µM
SMILES: COc1ccccc1C(=O)c1[nH]c(Cl)c(Cl)c1-n1c(C(=O)c2cccc3ccccc23)cc(Cl)c1Cl [Compound 35]

SMILES: CC1(C)CCC(c2ccc(Cl)cc2)=C(CN2CCN(c3ccc(C(=O)NS(=O)(=O)c4ccc(N[C@H](CCN5CCOCC5)CSc5ccccc5)c(S(=O)(=O)C(F)(F)F)c4)cc3)CC2)C1 [ABT-263]
concentration that inhibits Bcl-2 (Bcl-2): subnanomolar concentrations
activity on Mcl-1 (Mcl-1): only weakly target Mcl-1
concentration that inhibits Bcl-XL (Bcl-XL): subnanomolar concentrations

SMILES: CN(C)CC[C@H](CSc1ccccc1)Nc1ccc(S(=O)(=O)NC(=O)c2ccc(N3CCN(Cc4ccccc4-c4ccc(Cl)cc4)CC3)cc2)cc1[N+](=O)[O-] [ABT-737]
concentration that inhibits Bcl-2 (Bcl-2): subnanomolar concentrations
activity on Mcl-1 (Mcl-1): only weakly target Mcl-1
concentration that inhibits Bcl-XL (Bcl-XL): subnanomolar concentrations

SMILES: O=C(c1ccccc1O)c1[nH]c(Cl)c(Cl)c1-n1c(C(=O)c2ccc(F)cc2[O-])cc(Cl)c1Cl.[Na+] [Compound 31]
% Inhibition at 0.5, 5, 50 μM (MDA-MB-468 cells; 0.5 μM): 5.6%
% Inhibition at 0.5, 5, 50 μM (MDA-MB-468 cells; 5 μM): 63.5%
% Inhibition at 0.5, 5, 50 μM (MDA-MB-468 cells; 50 μM): 99.4%
IC50 (MDA-MB-468 cells; [5]): 2 µM
IC50 (MDA-MB-468 cells; [6]): 3.15 µM
IC50 (MDA-MB-468 cells; [4]): 3.97 µM and 2.33 µM

SMILES: O=C(c1ccccc1O)c1[nH]c(Cl)c(Cl)c1-n1c(C(=O)c2ccccc2O)cc(Cl)c1Cl [(+)-Marinopyrrole A, reference compound]
IC50 (MDA-MB-468 cells; [6]): 1.88 µM
IC50 (MDA-MB-468 cells; [4]): 2.14 µM and 1.64 µM

SMILES: O=C(c1ccccc1O)c1[nH]c(Cl)c(Cl)c1-n1c(C(=O)c2ccccc2O)cc(Cl)c1Cl [(−)-Marinopyrrole A, reference compound]
IC50 (MDA-MB-468 cells; [6]): 3.17 µM
IC50 (MDA-MB-468 cells; [4]): 3.47 µM and 2.87 µM

IC50 (MDA-MB-468 cells; [3]): 18.3 µM
SMILES: COc1ccc(C(=O)c2[nH]c(Cl)c(Cl)c2-n2c(C(=O)c3ccc(OC)cc3)cc(Cl)c2Cl)cc1 [Compound 39]

IC50 (MDA-MB-468 cells; [1]): 9 µM
SMILES: O=C(c1ccccc1O)c1[nH]c(Cl)c(Cl)c1-n1c(C(=O)c2cc(Cl)ccc2O)cc(Cl)c1Cl [Compound 1, (5-Chloro-2-hydroxyphenyl)(4,4′,5,5′-tetrachloro-2′-(2-hydroxybenzoyl)-1′H-1,3′-bipyrrol-2-yl)methanone]
inhibition at 0.5 µM (MDA-MB-468 cells; Homo sapiens): 1.6%
inhibition at 50 µM (MDA-MB-468 cells; Homo sapiens): 98.3%

SMILES: O=C(c1ccccc1O)c1[nH]c(Cl)c(Cl)c1-n1c(C(=O)c2cc(F)ccc2O)cc(Cl)c1Cl [Compound 8]
IC50 (MDA-MB-468 cells; [2]): 2.14 µM
IC50 (MDA-MB-468 cells; [3]): 2.23 µM
IC50 (MDA-MB-468 cells; [4]): 2.05 µM

IC50 (MDA-MB-468 cells; [3]): 10.7 µM
SMILES: COc1ccccc1C(=O)c1[nH]c(Cl)c(Cl)c1-n1c(C(=O)c2cc(Cl)c3ccccc3c2O)cc(Cl)c1Cl [Compound 11]

SMILES: O=C(c1ccccc1O)c1[nH]c(Cl)c(Cl)c1-n1c(C(=O)c2cc(Br)ccc2O)cc(Cl)c1Cl [Compound 33]
inhibition at 0.5 µM (MDA-MB-468 cells; Homo sapiens): 10.8%
inhibition at 5 µM (MDA-MB-468 cells; Homo sapiens): 58.7%
inhibition at 50 µM (MDA-MB-468 cells; Homo sapiens): 99.3%
IC50 (MDA-MB-468 cells; [1]): 2 µM
IC50 (MDA-MB-468 cells; [3]): 3.87 µM
